Test results taken from patent US11224604B2, “Treatment of graft versus host disease in transplant patients” (PRIOTHERA LIMITED, priority 2013, dated 2022).

System: lethal GvHD in mice
Experiment: lethal GvHD in mice (BALB/c splenic cells into cyclophosphamide-treated BDF1 mice)
Format: in vivo
Conditions: day 1 to day 20
Experimental: Female BALB/cAnNCrj mice and female Crj:BDF1 mice were purchased from CHARLES RIVER JAPAN and used at 10 weeks of age as donors and recipients, respectively.
Spleens were collected from donor BALB/c mice. […] The single cell suspension was passed through a cell strainer (70 um, FALCON). The filtrate was centrifuged to collect the cell pellet. […] The number of nucleated cells in the suspension was calculated by staining using Turk's solution. […] This suspension served as a splenic cell suspension.
Recipient BDF1 mice were treated with a dose of cyclophosphamide (SHIONOGI & CO., LTD.) at 300 mg/kg intraperitoneally on day0. One day after cyclophosphamide treatment, the BDF1 mice were intravenously injected with 0.25 mL
(5×10^7 cells/mouse) of the splenic cell suspension from BALB/c mice to induce lethal GvHD.
Treatment with a Compound (Control/CsA/KRP203)
The compounds were orally administrated once a day from day 1 (just after injection of the splenic cells) to day 20. The mice were observed until day 70.

NC(CO)(CO)CCc1ccc(Sc2cccc(OCc3ccccc3)c2)cc1Cl [KRP-203, 2-amino-2-[4-(3-benzyloxyphenylthio)-2-chlorophenyl]ethyl-propane-1,3-diol]
% Survival (KRP-203 0.01 mg/kg orally once a day, Day 5 after injection of the splenic cells): 100%
% Survival (KRP-203 0.01 mg/kg orally once a day, Day 8 after injection of the splenic cells): 89%
% Survival (KRP-203 0.01 mg/kg orally once a day, Day 10 after injection of the splenic cells): 67%
% Survival (KRP-203 0.01 mg/kg orally once a day, Day 12 after injection of the splenic cells): 44%
% Survival (KRP-203 0.01 mg/kg orally once a day, Day 20 after injection of the splenic cells): 44%
% Survival (KRP-203 0.01 mg/kg orally once a day, Day 25 after injection of the splenic cells): 44%
% Survival (KRP-203 0.01 mg/kg orally once a day, Day 30 after injection of the splenic cells): 44%
% Survival (KRP-203 0.01 mg/kg orally once a day, Day 40 after injection of the splenic cells): 33%
% Survival (KRP-203 0.01 mg/kg orally once a day, Day 70 after injection of the splenic cells): 33%
% Survival (KRP-203 0.03 mg/kg orally once a day, Day 5 after injection of the splenic cells): 100%
% Survival (KRP-203 0.03 mg/kg orally once a day, Day 8 after injection of the splenic cells): 100%
% Survival (KRP-203 0.03 mg/kg orally once a day, Day 10 after injection of the splenic cells): 100%
% Survival (KRP-203 0.03 mg/kg orally once a day, Day 12 after injection of the splenic cells): 100%
% Survival (KRP-203 0.03 mg/kg orally once a day, Day 20 after injection of the splenic cells): 100%
% Survival (KRP-203 0.03 mg/kg orally once a day, Day 25 after injection of the splenic cells): 100%
% Survival (KRP-203 0.03 mg/kg orally once a day, Day 30 after injection of the splenic cells): 100%
% Survival (KRP-203 0.03 mg/kg orally once a day, Day 40 after injection of the splenic cells): 100%
% Survival (KRP-203 0.03 mg/kg orally once a day, Day 70 after injection of the splenic cells): 100%
% Survival (KRP-203 0.1 mg/kg orally once a day, Day 5 after injection of the splenic cells): 100%
% Survival (KRP-203 0.1 mg/kg orally once a day, Day 8 after injection of the splenic cells): 100%
% Survival (KRP-203 0.1 mg/kg orally once a day, Day 10 after injection of the splenic cells): 100%
% Survival (KRP-203 0.1 mg/kg orally once a day, Day 12 after injection of the splenic cells): 100%
% Survival (KRP-203 0.1 mg/kg orally once a day, Day 20 after injection of the splenic cells): 100%
% Survival (KRP-203 0.1 mg/kg orally once a day, Day 25 after injection of the splenic cells): 100%
% Survival (KRP-203 0.1 mg/kg orally once a day, Day 30 after injection of the splenic cells): 100%
% Survival (KRP-203 0.1 mg/kg orally once a day, Day 40 after injection of the splenic cells): 100%
% Survival (KRP-203 0.1 mg/kg orally once a day, Day 70 after injection of the splenic cells): 100%
% Survival (KRP-203 0.3 mg/kg orally once a day, Day 5 after injection of the splenic cells): 100%
% Survival (KRP-203 0.3 mg/kg orally once a day, Day 8 after injection of the splenic cells): 100%
% Survival (KRP-203 0.3 mg/kg orally once a day, Day 10 after injection of the splenic cells): 100%
% Survival (KRP-203 0.3 mg/kg orally once a day, Day 12 after injection of the splenic cells): 100%
% Survival (KRP-203 0.3 mg/kg orally once a day, Day 20 after injection of the splenic cells): 100%
% Survival (KRP-203 0.3 mg/kg orally once a day, Day 25 after injection of the splenic cells): 100%
% Survival (KRP-203 0.3 mg/kg orally once a day, Day 30 after injection of the splenic cells): 100%
% Survival (KRP-203 0.3 mg/kg orally once a day, Day 40 after injection of the splenic cells): 100%
% Survival (KRP-203 0.3 mg/kg orally once a day, Day 70 after injection of the splenic cells): 100%
% Survival (KRP-203 1 mg/kg orally once a day, Day 5 after injection of the splenic cells): 100%
% Survival (KRP-203 1 mg/kg orally once a day, Day 8 after injection of the splenic cells): 100%
% Survival (KRP-203 1 mg/kg orally once a day, Day 10 after injection of the splenic cells): 100%
% Survival (KRP-203 1 mg/kg orally once a day, Day 12 after injection of the splenic cells): 100%
% Survival (KRP-203 1 mg/kg orally once a day, Day 20 after injection of the splenic cells): 100%
% Survival (KRP-203 1 mg/kg orally once a day, Day 25 after injection of the splenic cells): 100%
% Survival (KRP-203 1 mg/kg orally once a day, Day 30 after injection of the splenic cells): 100%
% Survival (KRP-203 1 mg/kg orally once a day, Day 40 after injection of the splenic cells): 100%
% Survival (KRP-203 1 mg/kg orally once a day, Day 70 after injection of the splenic cells): 100%
